# Results as given in patent EP0169405A2, “Use of substituted pyrimido (5,4-d) pyrimidines” (BOEHRINGER INGELHEIM KG, priority 1984, dated 1986).
# Read-outs that look alike come from different tables or passages of the source.
# Experiments:
# [1] = system: Störung des Kurzzeitgedächtnisses; experiment: Reversal of scopolamine-induced disturbance of short-term memory; type: in vivo; details: po; scopolamine-induced memory disturbance is reversed; read-out: niedrigste wirksame Dosis (wirksam ab)
# Source text: In der Formel I bedeutet • ^R1 einen Cl-C3-Alkoxy-(C2-C3-alkyl)rest, • ^R2 einen C2-C6-Hydroxyalkylrest oder einen C3-Dihydroxy- alkylrest, • ^R3 einen C1-C3-Alkoxy-(C2-C3-alkyl) rest oder einen C2-C3-Hydroxyalkylrest, • R4 einen Dialkylaminorest, wobei jeder Alkylrest 1 bis 6 C-Atome enthalten kann, die Diallyl- oder Di-(methoxyethyl)-aminogruppe oder einen gegebenenfalls durch eine Methylgruppe substituierten Pyrrolidino-, Piperidino-, Hexamethylenamino-, 1', 2', 5', 6'-Tetrahydropyridino-, Morpholino-, Thiomorpholino- oder 1-Oxidothiomorpholinoring. Die Verbindungen können als freie Basen oder als physiologisch verträgliche Säureadditionssalze mit anorganischen oder organischen Säuren vorliegen. Es wurde nun in tierexperimentellen Untersuchungen gefunden, daß die Verbindungen überraschenderweise besonders zur Beeinflussung eingeschränkter zerebraler Leistungsfähigkeit geeignet sind. Die folgenden Ergebnisse stützen diese Aussage: • 1. Durch gabe des muskarinen cholinergen Antagonisten Scopolamin wird eine Störung des Kurzzeitgedächtnisses bzw. des Übergangs von Inhalten des Kurzzeit- in das sogenannte Langzeitgedächnis erzeugt. Diese Einschränkung wird durch die neuen Verbindungen aufgehoben. […]
# [2] = Acute toxicity in the mouse (LD50); details: in vivo
Compound,minimal effective dose [1] [mg/kg],"LD50 ([2]; iv, read-out: i.v. LD50) [mg/kg]","LD50 ([2]; po, read-out: p.o. LD50) [mg/kg]"
COc1ccc(C(=O)N2CCCC2=O)cc1 [Aniracetam],50,–,–
CCN(CC)c1nc(N(CCO)CCOC)nc2c(N(CC)CC)nc(N(CCO)CCOC)nc12 [Verbindung (B)],–,133,> 3000
NC(=O)CN1CCCC1=O [Piracetam],150,–,–
